In brackets after ≈: the same amount, converted by molar mass.
These compounds were tested on Entamoeba histolytica (assay: Antiamoebic activity against Entamoeba histolytica). Settings: Entamoeba histolytica; read-out: IC50.
Format: functional, organism-based

SMILES	IC50 [µg/mL]
CC[C@@H](C)C(=O)O[C@H]1C(=O)O[C@@H]2C[C@H]3C(C)=CC(=O)[C@@H](O)[C@]3(C)[C@H]3[C@@H](O)[C@H](O)[C@]4(C)OC[C@]32[C@@H]14 [SIMALIKALACTONE D]	0.047 (≈ 0.0982 µM)
O=C(/C=C/c1ccc(O)cc1)O[C@H]1[C@@H]2C=CO[C@@H](O[C@@H]3O[C@H](CO)[C@@H](O)[C@H](O)[C@H]3O)[C@@H]2[C@@]2(CO)O[C@@H]12 [SPECIOSIDE]	0.198 (≈ 0.39 µM)
C/C=C1\CN2CC[C@]34c5ccccc5N5[C@@H]([C@H]6[C@@H]7N(C(C)=O)c8ccccc8[C@@]78CCN7C/C(=C\C)[C@@H]6C[C@H]78)OC[C@@H]([C@H]53)[C@H]1C[C@H]24 [STRYCHNOBILINE]	21.5 (≈ 35 µM)
C=C[C@H]1CN2CC[C@@]3(C(=O)Nc4cc(O)ccc43)[C@@H]2C[C@@H]1C[C@H]1c2[nH]c3ccccc3c2CCN1C [STRYCHNOFOLINE]	25.1 (≈ 51.9 µM)
C=C[C@H]1CN2CCc3c([nH]c4c([C@H]5CCCN5C)c(O)ccc34)[C@@H]2C[C@@H]1C[C@H]1c2[nH]c3ccccc3c2CCN1C [STRYCHNOPENTAMINE]	7.7 (≈ 14 µM)
COc1cc2c3cc1Oc1c(OC)c(OC)c(O)c4c1[C@H](Cc1ccc(cc1)Oc1cc(ccc1O)C[C@@H]3N(C)CC2)N(C)CC4 [THALISOPIDINE]	50 (≈ 80 µM)
COc1cc2c3cc1Oc1c(O)c(OC)cc4c1[C@H](Cc1ccc(O)c(c1)-c1cc(ccc1OC)C[C@H]3N(C)CC2)N(C)CC4 [TILIAGEINE]	19.2 (≈ 31.6 µM)
O=C(/C=C/c1ccc(O)cc1)OC[C@H]1O[C@@H](Oc2c(-c3ccc(O)cc3)oc3cc(O)cc(O)c3c2=O)[C@H](O)[C@@H](O)[C@@H]1O [TILIROSIDE]	17.4 (≈ 29.4 µM)
COc1ccc2cc1Oc1ccc(cc1)CC1=NCCc3cc(OC)c4c(c31)Oc1cc3c(cc1O4)CCN(C)[C@H]3C2 [TRIGILLETIMINE]	23.3 (≈ 41.5 µM)
CC[C@H]1CN2CCc3cc(OC)c(OC)cc3[C@@H]2C[C@@H]1C[C@H]1NCCc2c1[nH]c1ccc(O)cc21 [TUBULOSINE]	1.6 (≈ 3.36 µM)
C/C=C1/CN2CCc3c([nH]c4ccccc34)[C@@H]2C[C@@H]1Cc1nccc2c1[nH]c1ccccc12 [USAMBARENSINE]	0.49 (≈ 1.13 µM)
C=C[C@H]1CN2CCc3c([nH]c4ccccc34)[C@@H]2C[C@@H]1C[C@H]1c2[nH]c3ccccc3c2CCN1C [USAMBARINE]	0.46 (≈ 1.02 µM)
O=C(/C=C/c1ccc(O)c(O)c1)O[C@@H]1C2C=CO[C@H](O[C@@H]3O[C@H](CO)[C@@H](O)[C@H](O)[C@H]3O)C2[C@]2(CO)O[C@H]12 (stereo not given in full) [VERMINOSIDE]	0.0995 (≈ 0.19 µM)
COc1c(OC)c(O)c2c(=O)cc(-c3ccc(O)cc3)oc2c1OC [XANTHOMICROL]	275 (≈ 798 µM)
COC(=O)[C@]12OC[C@]34[C@H]([C@@H](O)[C@@H]1O)[C@@]1(C)C=C(O[C@@H]5O[C@H](CO)[C@@H](O)[C@H](O)[C@H]5O)C(=O)[C@@H](C)[C@@H]1C[C@H]3OC(=O)[C@H](OC(C)=O)[C@@H]24 [YADANZIOSIDE F]	2.33 (≈ 3.63 µM)

Source: ChEMBL document CHEMBL3046784, “Exploring QSAR of antiamoebic agents of isolated natural products by MLR, ANN, and RTO” (Med Chem Res, 2012)
